Measurements as given in PMC8728392, “Synthesis, Anticancer Assessment, and Molecular Docking of Novel Chalcone-Thienopyrimidine Derivatives in HepG2 and MCF-7 Cell Lines” (Oxidative Medicine and Cellular Longevity, 2021).

Assays:
[1] = test system: GR activity in MCF-7 cells; experiment: Glutathione reductase (GR) activity; assay type: cell-based, human; settings: IC50, in comparison to untreated cells
Protocol: The activity of GR was determined by the decrease in absorbance caused by the oxidation of NADPH during the reduction of oxidized GSH [41].
The activity of GR was determined by the decrease in absorbance caused by the oxidation of NADPH during the reduction of oxidized GSH (Malik et al., 2019). HepG2 or MCF-7cells were pre-treated with newly synthesized chalcone-thienopyrimidines derivatives for 24 hours, harvested and the pellet was re-suspended in twice the volume of protein extraction buffer (PEB). Cells were then vortexed vigorously for 2 min, repeating the cycle three times. Homogenate was then centrifuged at 10,000 rpm for 10 min. The supernatant was collected and was used to quantitate antioxidant enzyme GR using standard protocols. All determinations were made in at least five replicates and the values given are the average of these replicates.

[2] = test system: Bax, Bcl-2, caspase-3, and caspase-9 in MCF-7; experiment: RT-PCR relative expression of apoptosis markers; assay type: cell-based, human; settings: IC50, 8-hour incubation; for expression levels of Bax / expression levels of Bcl-2 / expression levels of caspase-3 / expression levels of caspase-9: vs control
Text: We determined the effect of IC50 concentration of newly synthesized thienopyrimidine derivatives (3a-e and 3g and 3b and 3g) on the relative expression levels of some markers of apoptosis in HepG2 and MCF-7 cell lines, respectively. These included the antiapoptotic marker Bcl-2 as well as the apoptotic markers Bax, caspase-3, and caspase-9 [33]. BIORAD iScript™ One-Step RT-PCR kit with SYBR® Green was used to assess the relative levels of expression of apoptosis markers. The measurement was carried out according to the technique of reverse transcription polymerase chain reaction (RT-PCR) using the Rotor-Gene RT-PCR system, and the method of the used kit was done based on the manufacturer's instructions. The procedure of this assay included the following:
Based on the manufacturer's instructions, the Qiagen RNeasy Extraction Kit (Qiagen Ltd., UK) was used to isolate mRNA from approximately 1 × 10^7 cells according to the cell line.
Mix all the following reagents to get the total volume (50 μl): 2X SYBR® Green RTPCR reaction mixture (25 μl), forward primer […] (1.5 μl), reverse primer […] (1.5 μl), nuclease-free water (11 μl), RNA template (1 pg-100 ng total RNA) (10 μl), and iScript reverse transcriptase (1 μl) for One-Step RT-PCR.
The thermal cycler (Rotor-Gene) program used was as follows: one cycle for reverse transcription at 50°C for 10 minutes and one cycle for RT inactivation/Hot-start activation at 95°C for 5 minutes and then 45 cycles for qPCR (10 s at 95°C, 30 seconds for annealing at 55°C, and 30 seconds for extension at 72°C), and this is followed by the final extension (one cycle) at 72°C for 10 minutes.

HepG2 cell line = experiment: Cell cycle analysis (PI, flow cytometry); assay type: cell-based, human
Outline: (§1)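 Cells exposed overnight to compounds, then ethanol-fixed (70%), RNase-treated (0.1 mg/ml) and propidium iodide-stained ([…]). DNA content measured by flow cytometry to give cell cycle phase distribution; 5-FU as reference.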

MCF-7 cell line = experiment: Cell cycle analysis (PI, flow cytometry); assay type: cell-based, human; settings: compared with control cells
Outline: as §1

HepG2 cells = experiment: Annexin V-FITC/PI apoptotic assay; assay type: cell-based, human
Text: Annexin V-fluorescein isothiocyanate (FITC) and counterstaining with propidium iodide (PI) using the Annexin V-FITC/PI apoptosis detection kit (BD Biosciences, San Diego, CA) were employed to distinguish early and late apoptotic cells according to the manufacturer's directions. Annexin V conjugated with fluorescein isothiocyanate was used to quantify the loss of phosphatidylserine asymmetry in cell membranes involved in apoptosis, and propidium iodide can distinguish between early apoptosis, late apoptotic, and necrotic cells. Analyses were achieved by using a FACSCalibur flow cytometer (BD Biosciences, San Jose, CA).
Cells were gently washed twice with PBS accompanied by tryptic digestion (0.25% trypsin/EDTA) and washed yet again with PBS. All the cells including the floating and adherent ones were harvested, pooled and stained with […] in 1× binding buffer for 15 min at room temperature in the dark. Analyses were achieved by FACS Calibur flow cytometer (BD Biosciences, San Jose, CA).

melting point [°C]	Compound	GR activity [1]	Bax/Bcl-2 ratios [2]	expression levels of Bax [2]	expression levels of Bcl-2 [2]	expression levels of caspase-3 [2]	expression levels of caspase-9 [2]	cell population in pre-G1 phases compared with control cells (HepG2 cell line)	G1 and pre-G1 arrest (MCF-7 cell line)	early and late apoptosis (HepG2 cells)	cell population in G2/M compared with control cells (HepG2 cell line)
172 to 173	CCOC(=O)Cn1c(SCC(=O)Nc2ccc(C(=O)/C=C\c3cc(OC)c(OC)c(OC)c3)cc2)nc2sc3c(c2c1=O)CCN(C(=O)OCC)C3 [Compound 3b, Ethyl (Z)-3-(2-Ethoxy-2-oxoethyl)-4-oxo-2-((2-oxo-2-((4-(3-(3,4,5 trimethoxyphenyl)acryloyl)phenyl)amino)ethyl)thio)-3,5,6,8 tetra-hydropyrido[4′,3′:4,5]thieno[2,3-d]pyrimidine-7(4H)-carboxylate]	significant decline	strikingly elevated	significant elevation	remarkable decrease	significant elevation	significant elevation	significant increase	significantly (P < 0.05) induced G1 and pre-G1 arrest	significantly exhibited early and late apoptosis	
194 to 195	CCOC(=O)Cn1c(SCC(=O)Nc2ccc(C(=O)/C=C\c3cccc([N+](=O)[O-])c3)cc2)nc2sc3c(c2c1=O)CC(C)(C)NC3(C)C [Compound 3g, Ethyl (Z)-2-(6,6,8,8-Tetramethyl-2-((2-((4-(3-(3-nitrophenyl)acryloyl)-phenyl)amino)-2-oxoethyl)thio)-4-oxo-5,6,7,8-tetrahydropyrido[4′,3′:4,5]thieno[2,3-d]pyrimidin-3(4H)-yl)acetate]	significant decline	strikingly elevated	significant elevation	remarkable decrease	significant elevation	significant elevation	significant increase	significantly (P < 0.05) induced G1 and pre-G1 arrest	significantly exhibited early and late apoptosis	substantial increase
